According to patent US20240317734A1, “BI-FUNCTIONAL COMPOUNDS AND METHODS FOR TARGETED UBIQUITINATION OF ANDROGEN RECEPTOR” (MONTELINO THERAPEUTICS, INC., priority 2021, published 2024):

Tested on: 22Rv1-Enz^R
Test: 22Rv1-Enz^R cell proliferation assay
Type: cell-based
Conditions: human prostate cancer cell line 22Rv1-Enz^R; 6-day culture, cell media changed every 24 hours; half maximal growth inhibition constant; read-out: 22Rv1-Enz^R proliferation assay GIC50
Method: The human prostate cancer cell line, 22Rv1 has been reported to express a high level of AR-V7. According to one procedure, 22Rv1 is seeded at 50,000 cells/well on a 24-well plate in quadruplicate and treated with test compounds in concentrations ranging up to 20 μM for four days. Standard culture media is RPMI-1640 supplemented with 10% fetal bovine serum. The test compound initially is dissolved in DMSO at 50 mM. This stock solution is then diluted as needed for the indicated concentrations. At the end of the four-day period, cells are harvested using 1% trypsin and counted using an automated cell counter.
Cell Culture. Human CaP cell lines, LNCaP, 22Rv1, VCaP, PC3, and DU145 are obtained from the American Type Culture Collection (ATCC) and maintained in the standard culture media: RPMI-1640 supplemented with 10% fetal bovine serum (FBS). LNCaP, 22Rv1, and VCaP are androgen-responsive cell lines, while PC3 and DU145 are not. To establish SAT resistant CaP cell lines, LNCaP, 22Rv1, and VCaP are treated continuously with 10-50 μM abiraterone, apalutamide, darolutamide, or enzalutamide. After 3-6 months, stable cell lines are established and designated as LNCaP-Abi^R, LNCaP-Apa^R, LNCap-Daro^R, LNcaP-Enz^R, VcaP-Abi^R, VCaP-Apa^R, VCaP-Daro^R, VCaP-Enz^R, 22Rv1-Abi^R, 22Rv1-Apa^R, 22Rv1-Daro^R, and 22Rv1-Enz^R. Unless otherwise specified, the standard culture media for these SAT-resistant cell lines included 10 μM of their respective SAT. For the proteasome inhibitor study, the inhibitors MG132 and Epoxomicin are used. The E3 ligase inhibitors Heclin, Nutlin 3a, Thalidomide, and VH298 are used. Cell lines obtained from ATCC are confirmed by checking their morphology using optical microscopy, establishing baselines for cell proliferation, verifying species of origin using isoenzymology, and characterizing the cell's DNA fingerprint using short tandem repeat (STR) profiling. Mycoplasma contamination is also assessed using a PCR based detection system.
Selected compounds may be tested in the human prostate cancer cell line, 22Rv1-Enz^R, as described in Geun Tack Lee et al., Molecular Cancer Therapeutics, 20:490-9 (2021). These procedures are similar to that described in Experimental Example 1, above, except that the assay conditions are a 6-day culture with cell media changed every 24 hours.

| Structure (SMILES) | IC50 [µM] |
| --- | --- |
| O=C(COc1c(-c2csc(N3CCOCC3)n2)ccc(F)c1F)NCCCCCCNc1ccc2nnn(C3CCC(=O)NC3=O)c(=O)c2c1 (stereo not shown) [Example 2, 2-(2,3-difluoro-6-(2-morpholinothiazol-4-yl)phenoxy)-N-(6-((3-(2,6-dioxopiperidin-3-yl)-4-oxo-3,4-dihydrobenzo[d][1,2,3]triazin-6-yl)amino)hexyl)acetamide] | < 10 |
| O=C1CCC(n2nnc3ccc(NCCOCCOCCOc4c(-c5csc(N6CCOCC6)n5)ccc(F)c4F)cc3c2=O)C(=O)N1 (stereo not shown) [Example 3, 3-(6-((2-(2-(2-(2,3-difluoro-6-(2-morpholinothiazol-4-yl)phenoxy)ethoxy)ethoxy)ethyl)amino)-4-oxobenzo[d][1,2,3]triazin-3(4H)-yl)piperidine-2,6-dione] | < 100 |
| O=C(COc1c(-c2csc(N3CCOCC3)n2)ccc(F)c1F)NCCCCNc1ccc2nnn(C3CCC(=O)NC3=O)c(=O)c2c1 (stereo not shown) [Example 1, 2-(2,3-difluoro-6-(2-morpholinothiazol-4-yl)phenoxy)-N-(4-((3-(2,6-dioxopiperidin-3-yl)-4-oxo-3,4-dihydrobenzo[d][1,2,3]triazin-6-yl)amino)butyl)acetamide] | < 100 |
| O=C(COc1c(-c2csc(N3CCOCC3)n2)ccc(F)c1F)NCCCCCCCCCCNc1ccc2nnn(C3CCC(=O)NC3=O)c(=O)c2c1 (stereo not shown) [Example 4, 2-(2,3-difluoro-6-(2-morpholinothiazol-4-yl)phenoxy)-N-(10-((3-(2,6-dioxopiperidin-3-yl)-4-oxo-3,4-dihydrobenzo[d][1,2,3]triazin-6-yl)amino)decyl)acetamide] | < 10 |
